20 compounds from US11691969B2, “Pyridazinones as PARP7 inhibtors” (Ribon Therapeutics, Inc., priority 2019, dated 2023) can be followed below.

PARP7, sequence (Q7Z3E1 whole entry): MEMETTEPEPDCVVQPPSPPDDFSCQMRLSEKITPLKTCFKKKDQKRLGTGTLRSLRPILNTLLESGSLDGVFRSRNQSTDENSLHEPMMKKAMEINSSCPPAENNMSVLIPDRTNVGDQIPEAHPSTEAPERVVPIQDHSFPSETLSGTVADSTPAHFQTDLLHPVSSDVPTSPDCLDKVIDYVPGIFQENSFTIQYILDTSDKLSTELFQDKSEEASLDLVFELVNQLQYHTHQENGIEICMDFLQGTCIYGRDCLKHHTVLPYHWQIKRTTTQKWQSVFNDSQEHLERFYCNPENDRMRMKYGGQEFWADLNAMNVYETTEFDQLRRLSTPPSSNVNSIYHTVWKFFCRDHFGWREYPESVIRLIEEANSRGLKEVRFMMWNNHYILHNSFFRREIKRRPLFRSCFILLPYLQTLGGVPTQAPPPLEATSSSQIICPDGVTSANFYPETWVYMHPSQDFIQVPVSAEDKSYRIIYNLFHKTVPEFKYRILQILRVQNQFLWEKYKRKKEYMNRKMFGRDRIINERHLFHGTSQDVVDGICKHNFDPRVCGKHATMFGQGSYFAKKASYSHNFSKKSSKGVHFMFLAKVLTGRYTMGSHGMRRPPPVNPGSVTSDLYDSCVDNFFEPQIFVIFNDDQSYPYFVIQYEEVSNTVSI

For one assay, the system named is NCI-H1373 cells. Nature of the assay: Tumor growth in human lung cancer model NCI-H1373 (subcutaneous xenograft). Format: in vivo. Particulars: 100 mg/kg PO QD*28 days, NCI-H1373 tumors in CB-17 SCID mice, compared to vehicle (50% Labrasol). An excerpt:
Example B. PARP7 Inhibitors' Affect on Tumor Growth in Human Lung Cancer Models NCI-H1373
In this study, CB-17 SCID mice were inoculated subcutaneously at the right flank with NCI-H1373 cells for tumor development. Six days after tumor inoculation, 20 mice with tumor size ranging from 105-160 mm^3 (average tumor size 132 mm^3) were selected and assigned into 2 groups using stratified randomization with 10 mice in each group based upon their tumor volumes. The treatments were started from the next day post randomization (defined randomization day as day 0), and the mice were treated with vehicle (50% Labrasol), the compound of Example 57 (100 mg/kg PO. QD*28 days). The tumor sizes were measured three times per week during the treatment. The entire study was terminated on day 28.
Mean tumor volume and SEM were plotted (FIG. 1). Statistical significance, calculated using two-way ANOVA combined with Bonferroni post-test in which treatment group was compared to vehicle control, is indicated by an asterisk.
Background: In xenograft studies the graft and the host belong to different species.
On to `C[C@@H](CO[C@@H]1CCN([C@@H]2CCN(c3ncc(C(F)(F)F)cn3)C[C@H]2O)C1=O)Nc1cn[nH]c(=O)c1C(F)(F)F` [Example 57, 5-(((S)-1-(((R)-1-((3R,4R)-3-hydroxy-1-(5-(trifluoromethyl)pyrimidin-2-yl)piperidin-4-yl)-2-oxopyrrolidin-3-yl)oxy)propan-2-yl)amino)-4-(trifluoromethyl)pyridazin-3(2H)-one], for which the “tumor growth (mean tumor volume)” value is “significantly reduce tumor growth”.

A further assay addresses PARP7 (Homo sapiens (Human), UniProt Q7Z3E1). Nature of the assay: TR-FRET assay: displacement of biotinylated Probe A from the TIPARP active site (Enzymatic Assay for Inhibition of PARP7). Format: binding. Particulars: TIPARP 6 nM, Probe A 2 nM, 25° C. The essentials: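 6 nM His-tagged TIPARP and 2 nM biotinylated Probe A preincubated with compound 30 min at 25 °C in HEPES pH 8 buffer, then 4 nM ULight-anti-6×His and 0.25 nM Eu-streptavidin added for 30 min more. 665/615 nm ratio normalised to DMSO and 100 μM reference inhibitor controls; IC50 from 4-parameter fit.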
Compound `C[C@@H](CO[C@@H]1CCN([C@@H]2CCN(c3ncc(C(F)(F)F)cn3)C[C@H]2O)C1=O)Nc1cn[nH]c(=O)c1C(F)(F)F` [Example 57, 5-(((S)-1-(((R)-1-((3R,4R)-3-hydroxy-1-(5-(trifluoromethyl)pyrimidin-2-yl)piperidin-4-yl)-2-oxopyrrolidin-3-yl)oxy)propan-2-yl)amino)-4-(trifluoromethyl)pyridazin-3(2H)-one] returned a 50% inhibitory concentration (IC50) of under 100 nM.

Regarding `C[C@@H](CO[C@@H]1CCN(C2CCN(c3ncc(Cl)cn3)CC2)C1=O)Nc1cn[nH]c(=O)c1C(F)(F)F` [Example 16, 5-(((S)-1-(((R)-1-(1-(5-chloropyrimidin-2-yl)piperidin-4-yl)-2-oxopyrrolidin-3-yl)oxy)propan-2-yl)amino)-4-(trifluoromethyl)pyridazin-3(2H)-one], the IC50 was under 100 nM.

Compound `C[C@@H](CN(C)C1CCN(C2CCN(c3ncc(C(F)(F)F)cn3)CC2)C1=O)Nc1cn[nH]c(=O)c1C(F)(F)F` (stereo partly drawn) [Example 29, 5-(((S)-1-(methyl(2-oxo-1-(1-(5-(trifluoromethyl)pyrimidin-2-yl)piperidin-4-yl)pyrrolidin-3-yl)amino)propan-2-yl)amino)-4-(trifluoromethyl)pyridazin-3(2H)-one] yielded a concentration for half-maximal inhibition (IC50) of under 100 nM.

Take `COC[C@@H](CO[C@H]1CCN(C2CCN(c3ncc(C(F)(F)F)cn3)CC2)C1=O)Oc1cn[nH]c(=O)c1Br` [Example 56A, 4-Bromo-5-(((S)-1-methoxy-3-(((S)-2-oxo-1-(1-(5-(trifluoromethyl)pyrimidin-2-yl)piperidin-4-yl)pyrrolidin-3-yl)oxy)propan-2-yl)oxy)pyridazin-3(2H)-one]: the 50% inhibitory concentration (IC50) was at least 1000 nM.

`C[C@@H](CO[C@@H]1CCN(C2CCN(c3cnc(C(F)(F)F)cn3)CC2)C1=O)Oc1cn[nH]c(=O)c1C(F)(F)F` [Example 31B, 5-(((S)-1-(((R)-2-oxo-1-(1-(5-(trifluoromethyl)pyrazin-2-yl)piperidin-4-yl)pyrrolidin-3-yl)oxy)propan-2-yl)oxy)-4-(trifluoromethyl)pyridazin-3(2H)-one] had an IC50 of 100 to 1000 nM.

With `COC[C@@H](CO[C@@H]1CCN(C2CCN(c3ccc(C#N)cn3)CC2)C1=O)Oc1cn[nH]c(=O)c1C(F)(F)F` [Example 50B, 6-(4-((R)-3-((S)-3-methoxy-2-((6-oxo-5-(trifluoromethyl)-1,6-dihydropyridazin-4-yl)oxy)propoxy)-2-oxopyrrolidin-1-yl)piperidin-1-yl)nicotinonitrile], the IC50 was under 100 nM.

With `N#Cc1ccc(N2CCC(N3CC[C@H](OCCNc4cn[nH]c(=O)c4C(F)(F)F)C3=O)CC2)nc1` [Example 36B], the IC50 is under 100 nM.

With `C[C@@H](CO[C@@H]1CCN([C@H]2CCN(c3ncc(C(F)(F)F)cn3)C[C@@H]2O)C1=O)Nc1cn[nH]c(=O)c1C(F)(F)F` [Example 58, 5-(((S)-1-(((R)-1-((3S,4S)-3-hydroxy-1-(5-(trifluoromethyl)pyrimidin-2-yl)piperidin-4-yl)-2-oxopyrrolidin-3-yl)oxy)propan-2-yl)amino)-4-(trifluoromethyl)pyridazin-3(2H)-one], the half-inhibitory concentration (IC50) is under 100 nM.

On to `COC[C@@H](CO[C@@H]1CCN(C2CCN(c3ccc(C#N)cn3)CC2)C1=O)Oc1cn[nH]c(=O)c1Br` [Example 55B, 6-(4-((R)-3-((S)-2-((5-bromo-6-oxo-1,6-dihydropyridazin-4-yl)oxy)-3-methoxypropoxy)-2-oxopyrrolidin-1-yl)piperidin-1-yl)nicotinonitrile], for which the 50% inhibitory concentration (IC50) was under 100 nM.

In turn, `C[C@@H](CO[C@H]1CCN(C2CCN(c3ncc(C(F)(F)F)cn3)CC2)C1=O)Oc1cn[nH]c(=O)c1C(F)(F)F` [Example 20A, 5-(((S)-1-(((S)-2-oxo-1-(1-(5-(trifluoromethyl)pyrimidin-2-yl)piperidin-4-yl)pyrrolidin-3-yl)oxy)propan-2-yl)oxy)-4-(trifluoromethyl)pyridazin-3(2H)-one] yielded an IC50 of under 100 nM.

`C[C@@H](CO[C@@H]1CCN(C2CCN(c3cnc(C(F)(F)F)cn3)CC2)C1=O)Oc1cn[nH]c(=O)c1Br` [Example 46B, 4-bromo-5-(((S)-1-(((R)-2-oxo-1-(1-(5-(trifluoromethyl)pyrazin-2-yl)piperidin-4-yl)pyrrolidin-3-yl)oxy)propan-2-yl)oxy)pyridazin-3(2H)-one]: the IC50 is under 100 nM.

Compound `C[C@@H](CO[C@@H]1CCN([C@@H]2CCN(c3ncc(C(F)(F)F)cn3)C[C@@H]2O)C1=O)Nc1cn[nH]c(=O)c1C(F)(F)F` [Example 59, 5-(((S)-1-(((R)-1-((3S,4R)-3-hydroxy-1-(5-(trifluoromethyl)pyrimidin-2-yl)piperidin-4-yl)-2-oxopyrrolidin-3-yl)oxy)propan-2-yl)amino)-4-(trifluoromethyl)pyridazin-3(2H)-one] registered a 50% inhibitory concentration (IC50) of under 100 nM.

Compound `C[C@@H](CO[C@@H]1CCN(C2CCN(c3ccc(C#N)cn3)CC2)C1=O)Oc1cn[nH]c(=O)c1Br` [Example 48A] yielded an IC50 of under 100 nM.

As to `C[C@@H](CO[C@H]1CCN(C2CCN(c3ncc(C(F)(F)F)cn3)CC2O)C1=O)Oc1cn[nH]c(=O)c1C(F)(F)F` (stereo partly drawn) [Example 64A, Syn-5-(((2S)-1-(((3S)-1-(3-hydroxy-1-(5-(trifluoromethyl)pyrimidin-2-yl)piperidin-4-yl)-2-oxopyrrolidin-3-yl)oxy)propan-2-yl)oxy)-4-(trifluoromethyl)pyridazin-3(2H)-one], the 50% inhibitory concentration (IC50) is under 100 nM.

Regarding `CCN(C(=O)COC[C@H](C)Nc1cn[nH]c(=O)c1C(F)(F)F)C1CCN(c2ncc(C(F)(F)F)cn2)CC1` [Example 7, (S)—N-ethyl-2-(2-((6-oxo-5-(trifluoromethyl)-1,6-dihydropyridazin-4-yl)amino)propoxy)-N-(1-(5-(trifluoromethyl)pyrimidin-2-yl)piperidin-4-yl)acetamide], the 50% inhibitory concentration (IC50) is under 100 nM.

`C[C@@H](CO[C@@H]1CCN(C2CCN(c3ncc(C(F)(F)F)cn3)CC2O)C1=O)Oc1cn[nH]c(=O)c1C(F)(F)F` (stereo partly drawn) [Example 64B, Syn-5-(((2S)-1-(((3R)-1-(3-hydroxy-1-(5-(trifluoromethyl)pyrimidin-2-yl)piperidin-4-yl)-2-oxopyrrolidin-3-yl)oxy)propan-2-yl)oxy)-4-(trifluoromethyl)pyridazin-3(2H)-one] yielded a concentration for half-maximal inhibition (IC50) of under 100 nM.

The compound `COC[C@@H](CO[C@@H]1CCN(C2CCN(c3ncc(C#N)s3)CC2)C1=O)Nc1cn[nH]c(=O)c1C(F)(F)F` [Example 54, 2-(4-((R)-3-((S)-3-methoxy-2-((6-oxo-5-(trifluoromethyl)-1,6-dihydropyridazin-4-yl)amino)propoxy)-2-oxopyrrolidin-1-yl)piperidin-1-yl)thiazole-5-carbonitrile] showed a half-maximal inhibitory concentration (IC50) of under 100 nM.

In turn, `Cc1cnc(N2CCC(N3CC[C@@H](OC[C@H](C)Nc4cn[nH]c(=O)c4C(F)(F)F)C3=O)CC2)nc1` [Example 44, 5-(((S)-1-(((R)-1-(1-(5-methylpyrimidin-2-yl)piperidin-4-yl)-2-oxopyrrolidin-3-yl)oxy)propan-2-yl)amino)-4-(trifluoromethyl)pyridazin-3(2H)-one] displayed a concentration for half-maximal inhibition (IC50) of under 100 nM.

`COC[C@@H](CO[C@H]1CCN(C2CCN(c3ccc(C#N)cn3)CC2)C1=O)Oc1cn[nH]c(=O)c1Br` [Example 55A, 6-(4-((S)-3-((S)-2-((5-bromo-6-oxo-1,6-dihydropyridazin-4-yl)oxy)-3-methoxypropoxy)-2-oxopyrrolidin-1-yl)piperidin-1-yl)nicotinonitrile] showed an IC50 of at least 1000 nM.

For the compound `C[C@@H](CO[C@@H]1CCN(C2CCN(c3ncc(C(F)F)cn3)CC2)C1=O)Nc1cn[nH]c(=O)c1C(F)(F)F` [Example 15B, 5-(((S)-1-(((R)-1-(1-(5-(difluoromethyl)pyrimidin-2-yl)piperidin-4-yl)-2-oxopyrrolidin-3-yl)oxy)propan-2-yl)amino)-4-(trifluoromethyl)pyridazin-3(2H)-one], the IC50 is under 100 nM.

What is called IC50 is the point on the concentration scale where inhibition reaches its midpoint. Read a high IC50 as weaker potency.
